Reference: patent US20140242019A1, “COMPOSITION FOR PREVENTING HAIR LOSS AND GROWING HAIR COMPRISING HYDROXYDIHYDROBOVOLIDE” (Pukyong National University Industry-University Cooperation …, priority 2013, published 2014)
Entries after “also recorded” stand apart in the source; their conditions may differ.

Assays:
[1] = test system: hair outer root sheath cells; assay: MTT cell proliferation / survival rate in hair outer root sheath cells; type: cell-based, human; settings: 24 h
Procedure: (§1) All of the tests were performed after obtaining approval of Ethics Commission of Medical College, Kyungpook National University. As samples of hairs, hairs in intact state were collected from scalps in the backs of the heads of male hair transplant patients. All of the hair samples were used with the consent of hair transplant patient who provides the samples. The area of subcutaneous fat of scalp including a hair follicle was isolated from the hair sample, and then the hair follicle was isolated by using a binocular microscope. In order to obtain hair papilla cells, the hair papilla was isolated from the hair follicle, and then shifted to a dish that was coated with bovine type I collagen. Then, the hair papilla in the dish was cultured (in an incubator at 37° C. and 5% CO2) in a DEME (Gibco BRL, Gaithersburg. Md., USA) medium including 20% heat inactivated fetal bovine serum including penicillin (100 U/mL) and streptomycin ([…]). […]
(§2) It was investigated whether or not the hydroxydihydrobovolide compound according to the present invention has an effect on cell proliferation in hair follicle cells and cells in the outer root sheath, in which the cells were closely associated with hair growth. […] After 30 minutes, absorbance of the cells was measured (570 nm).

[2] = test system: human hair follicle dermal papilla cells; assay: MTT cell proliferation / survival rate in human hair follicle dermal papilla cells; type: cell-based; settings: 24 h
Procedure: as §1, §2

human hair tissues = assay: Evaluation of hair growth using human hair tissue culture; type: cell-based; settings: 5 μM
Procedure: The human hair tissues were supplied from an immunology laboratory in Kyungpook National University. The human hair tissues were cultured in an incubator at 37° C. and CO2 by using Williams E media (Sigma, USA) including 2 mM L-glutamin, 100 U/mL of streptomycin, and 10 ng/ml of hydrocortisone. The test materials with various concentrations were cultured for 6 days, and the lengths of hairs were measured on the third days and sixth day.

CCCCCC1(O)OC(=O)C(C)=C1C (stereo not drawn) [hydroxydihydrobovolide, 5-hydroxy-3,4-dimethyl-5-pentylfuran-2(5H)-one]
cell proliferation increased by ([1]; 0.5 μM, vs control group, highest effect): 156% | cell proliferation compared with control group ([1]; 0.005 to 0.5 μM): significantly higher cell proliferation rate than the control group; also recorded: significantly higher than that of the control group | cell proliferation increased by ([2]; 0.05 μM, vs untreated control group, p<0.05): 144% | effect on cell proliferation compared with control group ([2]; 0.005 to 0.5 μM): significant cell proliferation effect; also recorded: significant effects on cell proliferation | length of hair on the third day (human hair tissues; day 3 of culture): 0.62 mm | length of hair on the sixth day (human hair tissues; day 6 of culture): 1.38 mm
